Our source for the IC50 values is patent US11180474B2 (BRISTOL-MYERS SQUIBB COMPANY, priority 2016, dated 2021).

pIC50: −log10 of the molar value.

What is called pIC50 is the IC50 on a negative log10 scale, so that one unit is a factor of ten.

The assay addresses T1, human TLR7 (Homo sapiens, UniProt Q9NYK1).
T1 construct: host or cells: HEK-Blue cells
T1 sequence (Q9NYK1 27-1049): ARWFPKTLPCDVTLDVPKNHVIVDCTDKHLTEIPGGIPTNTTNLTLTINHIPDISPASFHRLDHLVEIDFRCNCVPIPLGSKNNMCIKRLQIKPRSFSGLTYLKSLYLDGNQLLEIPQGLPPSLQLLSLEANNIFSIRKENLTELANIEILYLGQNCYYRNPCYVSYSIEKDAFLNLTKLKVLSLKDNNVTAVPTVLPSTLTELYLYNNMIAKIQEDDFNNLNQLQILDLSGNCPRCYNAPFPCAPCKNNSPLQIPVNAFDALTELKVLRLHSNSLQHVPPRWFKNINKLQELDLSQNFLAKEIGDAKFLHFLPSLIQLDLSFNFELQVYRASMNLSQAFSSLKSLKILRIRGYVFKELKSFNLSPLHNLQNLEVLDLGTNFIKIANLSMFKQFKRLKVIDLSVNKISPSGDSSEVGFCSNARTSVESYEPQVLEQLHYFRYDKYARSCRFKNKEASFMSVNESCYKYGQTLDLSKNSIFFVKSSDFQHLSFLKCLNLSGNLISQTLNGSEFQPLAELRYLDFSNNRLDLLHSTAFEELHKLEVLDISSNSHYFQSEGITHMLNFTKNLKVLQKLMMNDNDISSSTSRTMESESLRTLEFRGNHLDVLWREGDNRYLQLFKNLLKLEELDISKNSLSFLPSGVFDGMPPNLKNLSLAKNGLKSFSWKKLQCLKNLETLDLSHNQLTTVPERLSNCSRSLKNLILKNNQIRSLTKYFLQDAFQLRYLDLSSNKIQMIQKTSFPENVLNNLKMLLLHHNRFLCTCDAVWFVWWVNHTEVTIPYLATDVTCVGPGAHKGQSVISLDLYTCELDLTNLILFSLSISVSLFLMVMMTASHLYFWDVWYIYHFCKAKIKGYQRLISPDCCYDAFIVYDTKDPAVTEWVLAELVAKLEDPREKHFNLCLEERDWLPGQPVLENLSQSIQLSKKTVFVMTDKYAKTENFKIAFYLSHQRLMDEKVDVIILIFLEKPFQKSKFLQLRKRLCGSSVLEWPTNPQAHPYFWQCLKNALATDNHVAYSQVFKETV
Nature of the assay: TLR7 inhibition reporter assay (HEK-Blue cells, SEAP reporter, gardiquimod stimulation). The assay is classed as cell-based. As to conditions: HEK-Blue cells overexpressing human TLR7, gardiquimod 7.5 μM. A digest of the protocol:
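SEAP readout via HEK-Blue Detection medium after 22 h at 37 °C, 5% CO2 defines inhibition, normalized between agonist-plus-DMSO wells and a reference inhibitor. Compound dose range 0.05 nM–50 μM; TLR7 cells at 15,000/well (gardiquimod), TLR8 at 20,000/well (R848).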
`COc1ccc(-c2[nH]c3ccc(C4CCN(C(=O)CN(C)CCO)CC4)cc3c2C)cc1OC` [Example 408, 1-(4-(2-(3,4-dimethoxyphenyl)-3-methyl-1H-indol-5-yl)piperidin-1-yl)-2-((2-hydroxyethyl)(methyl)amino)ethan-1-one] gave a pIC50 of 6.05. Then `COc1ccc(-c2[nH]c3ccc(C4CCN(C(=O)CN5CCN(C)CC5)CC4)cc3c2C)cc1OC` [Example 409, 1-(4-(2-(3,4-dimethoxyphenyl)-3-methyl-1H-indol-5-yl)piperidin-1-yl)-2-(4-methylpiperazin-1-yl)ethan-1-one], with 5.99; and `COc1ccc(-c2[nH]c3ccc(C4CCN(C(=O)CN5CCCN(C)CC5)CC4)cc3c2C)cc1OC` [Example 410, 1-(4-(2-(3,4-dimethoxyphenyl)-3-methyl-1H-indol-5-yl)piperidin-1-yl)-2-(4-methyl-1,4-diazepan-1-yl)ethan-1-one], with 5.41; and `C#CCCCCC(=O)NCCN1CCC(c2ccc3[nH]c(-c4ccc(OC)c(OC)c4)c(C(C)C)c3c2)CC1` [Example 411, N-(2-(4-(2-(3,4-dimethoxyphenyl)-3-isopropyl-1H-indol-5-yl)piperidin-1-yl)ethyl)hept-6-ynamide], with 7.20.

Compound `COc1ccc(-c2[nH]c3ccc(C4CCN(C5CCN(C(C)C)CC5)CC4)cc3c2CC(F)(F)F)cc1OC` [Example 412, 2-(3,4-dimethoxyphenyl)-5-(1′-isopropyl-[1,4′-bipiperidin]-4-yl)-3-(2,2,2-trifluoroethyl)-1H-indole] gave a negative logarithm of the IC50 (pIC50) of 7.72. This pIC50 is 0.52 log units higher than that of the compound before. To `CNCCN1CCC(c2ccc3[nH]c(-c4ccc(OC)c(OC)c4)c(CC(F)(F)F)c3c2)CC1` [Example 413, 2-(4-(2-(3,4-dimethoxyphenyl)-3-(2,2,2-trifluoroethyl)-1H-indol-5-yl)piperidin-1-yl)-N-methylethanamine] belongs 7.08; to `CNCC(=O)N1CCC(c2ccc3[nH]c(-c4ccc(OC)c(OC)c4)c(CC(F)(F)F)c3c2)CC1` [Example 414, 1-(4-(2-(3,4-dimethoxyphenyl)-3-(2,2,2-trifluoroethyl)-1H-indol-5-yl)piperidin-1-yl)-2-(methylamino)ethanone], 7.24. To `CCN(CC)C(=O)C1CCCN(CC(=O)N2CCC(c3ccc4[nH]c(-c5ccc(OC)c(OC)c5)c(CC(F)(F)F)c4c3)CC2)C1` (centres unmarked) [Example 418, 1-(2-(4-(2-(3,4-dimethoxyphenyl)-3-(2,2,2-trifluoroethyl)-1H-indol-5-yl)piperidin-1-yl)-2-oxoethyl)-N,N-diethylpiperidine-3-carboxamide] belongs 7.10.

As to `COc1ccc(-c2[nH]c3ccc(C4CCN(C(=O)CN5CCCC(C(=O)N(C)C)C5)CC4)cc3c2CC(F)(F)F)cc1OC` (centres unmarked) [Example 419, 1-(2-(4-(2-(3,4-dimethoxyphenyl)-3-(2,2,2-trifluoroethyl)-1H-indol-5-yl)piperidin-1-yl)-2-oxoethyl)-N,N-dimethylpiperidine-3-carboxamide], the pIC50 was 7.51. To `CCN(CC)C(=O)C1CCCN(CC(=O)N2CCC(c3ccc4[nH]c(-c5ccc(OC)c(OC)c5)c(CC(F)(F)F)c4c3)CC2)C1` (centres unmarked) [Example 420, 1-(2-(4-(2-(3,4-dimethoxyphenyl)-3-(2,2,2-trifluoroethyl)-1H-indol-5-yl)piperidin-1-yl)-2-oxoethyl)-N,N-diethylpiperidine-3-carboxamide] belongs 7.18; to `CCN(CC)C(=O)C1CCCN(CC(=O)N2CCC(c3ccc4[nH]c(-c5ccc(OC)c(OC)c5)c(CC(F)(F)F)c4c3)CC2)C1` (centres unmarked) [Example 421, 1-(2-(4-(2-(3,4-dimethoxyphenyl)-3-(2,2,2-trifluoroethyl)-1H-indol-5-yl)piperidin-1-yl)-2-oxoethyl)-N,N-diethylpiperidine-3-carboxamide], 6.94.
